“Also recorded” adds a separate entry of the source. Where two headings read alike, the source gives them in different places.
Experiments:
[1] = system: D. radiodurans 50S ribosomal subunits (23S rRNA); assay: RNA probing (chemical footprinting) of 23S rRNA with CMCT and DMS; type: binding; conditions: LC 50 μM, LM 500 μM, D50S 200 nM; for Protection of 23S rRNA residues from CMCT modification: ERY 50 μM
Protocol: (§1) To address this question, it was first verified that LM binds to the ribosome and inhibits protein synthesis. […] RNA probing was then utilized to follow the binding of LC and LM to the ribosome. For the consistency of structural data, RNA probing experiments were carried out using D. radiodurans large ribosomal subunits. Binding of LC and LM was analyzed using chemical modifying reagents 1-cyclohexyl-3-(2-morpholinoethyl) carbodiimide metho-p-toluene sulfonate (CMCT) and dimethyl sulfate (DMS).
Similar to ERY and other 14 member-ring macrolides, binding of LM results in protection of U2609 from CMCT modification and of A2058 and A2059 from DMS chemical modification performed on the 23S rRNA of D. Radiodurans in complex with the combinations of the antibiotics (FIGS. 6C,D). The idiosyncratic protections of 23S rRNA residues were exploited against CMCT modification, afforded by LC and LM, to interrogate their simultaneous interaction with the ribosome. […] However, the accessibility of these residues to CMCT is not affected by LM or ERY (FIG. 6). […] In contrast, and in agreement with the binding experiments, the LC-mediated protection of U2506 and U2585 is partially relieved upon addition of ERY (FIG. 6D) and ERY-dependent protection of U2609 is partly reversed when LC is present. Thus, while LC and ERY compete for the binding to the ribosome, LC and LM can bind simultaneously to their respective targets in the PTC and NPET.
(§2) Antibiotic binding and inhibition of cell-free translation were determined as described in (Xiong, L. et al., 2005, Antimicrob Agents Chemother 49, 281-288). Inhibition of the peptidyl transferase reaction by LC was performed and analyzed as described in. The data were analyzed using Prism 4 (GraphPad Software). RNA probing was carried out as described in (Moazed, D. and Noller, H. F., 1987, Biochemie 69, 879-884) using D50S.
RNA probing was carried out essentially as described (16, 46) using D. radiodurans 50S ribosomal subunits at 200 nM concentration and antibiotics at the following concentrations: LC—50 μM, LM—500 μM, ERY—50 μM. Prior to addition of the modifying reagents, ribosomal subunits were pre-incubated with the drug 10 min at 37° C. and then 10 min at 20° C.

[2] = system: E. coli cell-free transcription-translation system; assay: Inhibition of E. coli cell-free transcription-translation (firefly luciferase readout); type: biochemical
Protocol: as §1, §2
The E. coli cell-free transcription-translation system for circular DNA (Promega) was pre-incubated with varying concentrations of antibiotics for 5 min at 20° C. The reactions (10 μl final volume) were initiated by adding 0.64 μg of pBestLuc plasmid DNA (Promega). Reactions were incubated for 40 min at 20° C. and stopped by chilling on ice. The activity of firefly luciferase synthesized in the reaction was determined in 96-well plates using Bright-Glo Luciferase Assay System (Promega) as recommended by the manufacturer.

[3] = system: Staphylococcus aureus 70S ribosomes; assay: Inhibition of peptidyl transferase (puromycin) reaction, 70S ribosomes; type: biochemical; conditions: S. aureus 70S ribosomes, FIG. 5B; read-out: IC50, inhibition of puromycin reaction (peptide bond formation)
Protocol: as §2
(§3) In the reaction catalyzed by large ribosomal subunits, D. radiodurans 50S subunits (200 nM final concentration) were combined in 50 μl of the reaction buffer (20 mM Tris-HCl, pH 8.0, 20 mM MgCl2, 400 mM KCl) with 28 nM [^3H]-fMet-tRNA, 1 mM puromycism at varying concentrations of LC. Reactions were initiated by addition of 25 μl methanol and incubated on ice for 30 min. Reactions were stopped and analyzed as described (Maguire et al., 2005, Mol Cell 20, 427-435). In the ribosome-based puromycin assay, 70S ribosomes of S. aureus (at a final concentration of 200 nM) were preincubated for 15 min at 37° C. in 50 μl of polyamine buffer (20 mM HEPES-KOH, pH 7.6, 6 mM Mg-acetate, 150 mM NH4Cl, 4 mM β-mercaptoethanol, 2 mM spermidine, 0.05 mM spermine) with 600 nM mRNA AAGGAGAUAAACAAUGGGU and 28 nM [^3H]-fMet-tRNA. After addition of varying concentrations of LC, puromycin was added to the final concentration of 0.5 mM and reactions were incubated for 15 m in at 37° C. […]

[4] = target: D. radiodurans 50S subunits; assay: Competition with 14C-ERY for binding to 50S subunits; conditions: 0.1 μM 50S, 0.1 μM 14C-erythromycin, FIG. 5C; read-out: IC50, displacement of 14C-ERY from D50S
Excerpt: S. rochei secretes two antibiotics, a 17-member ring macrocyclic LC and a 14-member ring macrolide, lankamycin (LM). LM is structurally similar to ERY (FIG. 1) and thus it was assumed that it is likely to bind to the ribosome at the site and orientation similar to ERY, namely at the NPET in immediate proximity to the PTC, the LC binding site. […] These observations raised the question whether, similarly to ERY, LM would also compete with LC for ribosome binding.
as §2
D. radiodurans 50S subunits (0.1 μM) were preincubated 15 min at 37° C. with 0.1 μM of ^14C-erthromycin (48.8 mCi/mmol, Perkin Elmer) in 100 μl binding buffer (20 mM Tris-HCl, pH 7.5, 10 mM MgCl2, 250 mM NH4Cl, 6 mM β-mercaptoethanol). […] The ribosome-antibiotic complexes were purified by gel filtration in BioGel P30 spin columns as described (Xiong, L. et al. ibid) and the amount of ribosome-bound radioactivity was measured by scintillation counting.

[5] = target: large ribosomal subunits of D. radiodurans; assay: Inhibition of peptidyl transferase (puromycin) reaction, isolated large subunits; type: biochemical; conditions: FIG. 5B, read-out: IC50, inhibition of puromycin reaction (peptide bond formation)
Protocol: as §2, §3

Gram-positive bacteria = conditions: background statement; cited from earlier work
[6] = system: eukaryotic cell-free translation; conditions: background statement; cited from earlier work
[7] = background statement; cited from earlier work
[8] = Table 2, read-out: [IC50] for antibiotic inhibition of cell free translation
[9] = FIG. 5A / 5D, read-out: IC50, inhibition of bacterial (E. coli) cell-free transcription-translation

| SMILES | Protection of 23S rRNA residues from CMCT modification [1] | IC50 [2, 8] [nM] | Protection of 23S rRNA residues from DMS modification [1] | IC50 [2, 9] [nM] | Antibiotic activity against Gram-positive bacteria (Gram-positive bacteria) | also measured |
| --- | --- | --- | --- | --- | --- | --- |
| CC[C@H]1OC(=O)[C@H](C)[C@@H](O[C@H]2C[C@@](C)(OC)[C@@H](O)[C@H](C)O2)[C@H](C)[C@@H](O[C@@H]2O[C@H](C)C[C@H](N(C)C)[C@H]2O)[C@](C)(O)C[C@@H](C)C(=O)[C@H](C)[C@@H](O)[C@]1(C)O [ERY, erythromycin, reference compound] | strongly protect U2609 | 200 |  |  |  |  |
| CC(=O)C(=O)N[C@@H]1/C=C(C)/C=C/[C@@H](O)C/C=C(C)/C=C/[C@@H](O)C[C@H]2OC(=O)[C@]1(C)C(=O)[C@@H]2C [LC, Lankacidin C] | shields U2506 and U2585 from alterations; also recorded: no effect on this nucleotide |  | A2059 became partially protected from DMS whereas modification of A2058 was increased | 1500 ± 100 | inhibits growth of Gram-positive bacteria | IC50 [3]: 320 ± 20 nM; IC50 [4]: 355 ± 26 nM; IC50 [5]: 10000 ± 6000 nM; Effect on eukaryotic cell-free translation [6]: little effect |
| CO[C@H]1C[C@@H](C)O[C@@H](O[C@@H]2[C@@H](C)[C@H](O[C@H]3C[C@@](C)(OC)[C@H](OC(C)=O)[C@H](C)O3)[C@@H](C)C(=O)O[C@H]([C@@H](C)[C@H](C)O)[C@H](C)[C@H](OC(C)=O)[C@@H](C)C(=O)[C@@](C)(O)C[C@@H]2C)[C@@H]1O [LM, lankamycin] | strongly protect U2609 |  | protects A2059 and A2058 from DMS modification | 275000 ± 36000 | weak antibiotic activity | Toxicity in animal models [7]: low toxicity |
| CC1=C\[C@@H](O)CC(=O)Cc2nc(co2)C(=O)N2CCC=C2C(=O)O[C@H](C(C)C)[C@H](C)/C=C/C(=O)NC\C=C\1 [Virginiamycin M] |  | 800 |  |  |  |  |
| CC[C@H]1NC(=O)[C@@H](NC(=O)c2ncccc2O)[C@@H](C)OC(=O)[C@H](c2ccccc2)NC(=O)[C@@H]2CC(=O)CCN2C(=O)[C@H](Cc2ccccc2)N(C)C(=O)[C@@H]2CCCN2C1=O [Virginiamycin S] |  | 2500 |  |  |  |  |
